{"source": "patent US9801901B2", "about": "“Alginate oligomers for use in overcoming multidrug resistance in bacteria” (priority 2009, dated 2017)", "test_system": "V23 1322 Burkholderia cepacia", "experiment": "MIC assay, CAMHB with alginate oligomer, no visible growth", "assay_type": "cell-based", "details": "Table 5, V23 MDR Burk cep", "note": "Marks after values point to notes of the source that are not given here."}
{"smiles": "CC1(C)C[C@@H]1C(=O)N/C(=C\\CCCCSC[C@H](N)C(=O)O)C(=O)O", "note": "[Primaxin, Imipenem/cilastatin]", "values": [{"measurement": "MIC", "setting": "Burkholderia cepacia, OligoCF-5/20 0G", "value": 32, "unit": "µg/mL"}, {"measurement": "MIC", "setting": "OligoCF-5/20 +2% G", "value": 32, "unit": "µg/mL"}, {"measurement": "MIC", "setting": "OligoCF-5/20 +6% G", "value": 32, "unit": "µg/mL"}, {"measurement": "MIC", "setting": "OligoCF-5/20 +10% G", "value": "8^† μg/ml"}]}
